Results from ChEMBL document CHEMBL5331073, “Discovery of novel 7,7-dimethyl-6,7-dihydro-5H-pyrrolo[3,4-d]pyrimidines as ATR inhibitors based on structure-based drug design” (Eur J Med Chem, 2023).

Assays:
HT-29 [1] = test: Antiproliferative activity against ATM-proficient human HT-29 cells assessed as reduction in cell proliferation incubated for 3 days by MTT assay; assay type: functional, cell-based; conditions: HT-29, 72 h
A549 = test: Antiproliferative activity against ATM-proficient human A549 cells assessed as reduction in cell viability incubated for 3 days by MTT assay; assay type: functional, cell-based; conditions: A549, 72 h
HCT-116 = test: Antiproliferative activity against ATM-proficient human HCT-116 cells assessed as reduction in cell viability incubated for 3 days by MTT assay; assay type: functional, cell-based; conditions: HCT-116, 72 h
[2] = Half life in Sprague-Dawley rat at 5 mg/kg, po and measured upto 24 hrs by LC-MS analysis; assay type: ADME, organism-based; conditions: in vivo
in vitro [3] = conditions: human, liver microsomes
in vitro [4] = conditions: rat, liver microsomes
[5] = biological target: T1, Serine/threonine-protein kinase ATR (Homo sapiens, UniProt Q13535); test: Inhibition of ATR (unknown origin) using peptide as substrate preincubated for 10 mins followed by substrate addition by microplate reader analysis
Target sequence in this assay (Q13535 whole entry): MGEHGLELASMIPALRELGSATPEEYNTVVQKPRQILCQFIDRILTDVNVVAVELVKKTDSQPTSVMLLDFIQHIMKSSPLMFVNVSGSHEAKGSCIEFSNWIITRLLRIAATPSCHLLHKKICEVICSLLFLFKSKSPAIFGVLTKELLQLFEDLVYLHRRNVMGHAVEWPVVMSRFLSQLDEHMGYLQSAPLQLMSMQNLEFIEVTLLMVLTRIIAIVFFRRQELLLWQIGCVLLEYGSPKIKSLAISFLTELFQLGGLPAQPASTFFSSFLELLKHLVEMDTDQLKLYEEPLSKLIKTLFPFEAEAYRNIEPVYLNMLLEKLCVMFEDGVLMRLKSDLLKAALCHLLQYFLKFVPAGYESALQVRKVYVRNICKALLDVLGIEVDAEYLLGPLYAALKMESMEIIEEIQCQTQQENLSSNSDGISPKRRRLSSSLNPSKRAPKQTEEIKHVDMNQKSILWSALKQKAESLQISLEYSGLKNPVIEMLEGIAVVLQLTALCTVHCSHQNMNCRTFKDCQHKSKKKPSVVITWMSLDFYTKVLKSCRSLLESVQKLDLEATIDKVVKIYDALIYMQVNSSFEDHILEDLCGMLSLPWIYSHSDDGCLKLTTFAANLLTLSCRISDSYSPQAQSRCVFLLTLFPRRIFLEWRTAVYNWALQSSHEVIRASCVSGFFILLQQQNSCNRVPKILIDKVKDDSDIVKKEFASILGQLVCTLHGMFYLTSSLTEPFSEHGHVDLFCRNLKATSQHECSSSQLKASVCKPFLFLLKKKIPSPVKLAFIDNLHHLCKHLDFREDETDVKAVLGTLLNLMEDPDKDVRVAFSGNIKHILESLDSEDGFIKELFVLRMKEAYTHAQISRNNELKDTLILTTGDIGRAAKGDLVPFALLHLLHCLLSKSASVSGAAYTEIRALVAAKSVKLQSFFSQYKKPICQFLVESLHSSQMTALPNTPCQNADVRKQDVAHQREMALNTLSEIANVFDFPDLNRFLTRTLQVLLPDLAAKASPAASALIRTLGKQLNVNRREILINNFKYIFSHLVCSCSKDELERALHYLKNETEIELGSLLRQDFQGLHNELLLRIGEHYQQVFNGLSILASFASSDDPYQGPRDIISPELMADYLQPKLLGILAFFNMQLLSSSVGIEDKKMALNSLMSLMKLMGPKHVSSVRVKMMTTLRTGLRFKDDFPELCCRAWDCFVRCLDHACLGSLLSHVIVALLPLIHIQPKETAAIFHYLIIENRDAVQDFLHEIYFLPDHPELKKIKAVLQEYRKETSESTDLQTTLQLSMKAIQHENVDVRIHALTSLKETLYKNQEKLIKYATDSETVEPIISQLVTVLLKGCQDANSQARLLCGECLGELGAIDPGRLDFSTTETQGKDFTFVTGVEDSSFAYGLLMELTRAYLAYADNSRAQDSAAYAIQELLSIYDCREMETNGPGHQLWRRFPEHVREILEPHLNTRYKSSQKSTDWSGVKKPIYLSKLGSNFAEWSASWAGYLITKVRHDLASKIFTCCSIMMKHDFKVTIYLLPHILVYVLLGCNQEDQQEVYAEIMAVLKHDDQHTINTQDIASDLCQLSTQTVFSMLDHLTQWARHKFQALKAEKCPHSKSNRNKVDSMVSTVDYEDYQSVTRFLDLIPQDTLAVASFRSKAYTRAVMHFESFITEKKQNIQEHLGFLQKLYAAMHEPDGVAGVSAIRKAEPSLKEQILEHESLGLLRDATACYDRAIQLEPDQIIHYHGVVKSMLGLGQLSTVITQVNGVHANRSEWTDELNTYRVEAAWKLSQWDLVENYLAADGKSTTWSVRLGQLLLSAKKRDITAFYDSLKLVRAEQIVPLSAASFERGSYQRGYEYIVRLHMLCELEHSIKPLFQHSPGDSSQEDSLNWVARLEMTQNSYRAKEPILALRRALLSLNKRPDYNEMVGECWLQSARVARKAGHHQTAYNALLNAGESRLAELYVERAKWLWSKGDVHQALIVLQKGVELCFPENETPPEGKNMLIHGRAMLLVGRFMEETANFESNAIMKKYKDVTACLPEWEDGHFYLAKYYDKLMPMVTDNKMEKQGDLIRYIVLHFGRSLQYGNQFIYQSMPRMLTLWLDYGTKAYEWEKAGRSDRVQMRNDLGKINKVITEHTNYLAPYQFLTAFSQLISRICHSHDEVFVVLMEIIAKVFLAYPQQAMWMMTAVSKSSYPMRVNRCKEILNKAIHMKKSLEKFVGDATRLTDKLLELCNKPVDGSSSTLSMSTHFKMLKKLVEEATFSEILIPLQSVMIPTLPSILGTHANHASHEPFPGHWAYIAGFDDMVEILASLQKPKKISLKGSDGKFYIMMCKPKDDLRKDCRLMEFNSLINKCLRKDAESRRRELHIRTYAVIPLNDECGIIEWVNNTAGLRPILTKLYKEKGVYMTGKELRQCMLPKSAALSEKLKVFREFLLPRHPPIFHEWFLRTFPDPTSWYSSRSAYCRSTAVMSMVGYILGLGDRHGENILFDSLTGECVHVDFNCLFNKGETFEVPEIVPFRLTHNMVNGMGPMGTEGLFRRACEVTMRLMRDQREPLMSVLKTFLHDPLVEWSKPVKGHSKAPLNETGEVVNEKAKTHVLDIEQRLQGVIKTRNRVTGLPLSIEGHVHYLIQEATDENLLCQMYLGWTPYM

LoVo [6] = test: Antiproliferative activity against ATM-deficient human LoVo cells assessed as reduction in cell proliferation at 0.1 to 25 uM incubated for 3 days by MTT assay; assay type: functional, cell-based; conditions: dose 0.1-25 µM, time 3.0 day
[7] = AUC (0 to infinity) in Sprague-Dawley rat at 5 mg/kg, po and measured upto 24 hrs by LC-MS analysis; assay type: ADME, organism-based; parameters: time < 24 hrs, dose 5 mg/kg, route po; conditions: in vivo
[8] = AUCt in Sprague-Dawley rat at 5 mg/kg, po and measured upto 24 hrs by LC-MS analysis; assay type: ADME, organism-based; parameters: time < 24 hrs, dose 5 mg/kg, route po; conditions: in vivo
[9] = Clearance in Sprague-Dawley rat at 1 mg/kg, iv and measured upto 24 hrs by LC-MS analysis; assay type: ADME, organism-based; conditions: in vivo
[10] = AUC(0 to infinity) in Sprague-Dawley rat at 1 mg/kg, iv and measured upto 24 hrs by LC-MS analysis; assay type: ADME, organism-based; parameters: time < 24 hrs, dose 1 mg/kg, route iv; conditions: in vivo
[11] = MRT(t) in Sprague-Dawley rat at 5 mg/kg, po and measured upto 24 hrs by LC-MS analysis; assay type: ADME, organism-based; conditions: in vivo
[12] = Tmax in Sprague-Dawley rat at 5 mg/kg, po and measured upto 24 hrs by LC-MS analysis; assay type: ADME, organism-based; conditions: in vivo
[13] = MRT (0 to infinity) in Sprague-Dawley rat at 1 mg/kg, iv and measured upto 24 hrs by LC-MS analysis; assay type: ADME, organism-based; conditions: in vivo
LoVo [14] = test: Antiproliferative activity against ATM-deficient human LoVo cells assessed as reduction in cell proliferation incubated for 3 days by MTT assay; assay type: functional, cell-based; conditions: 72 h
[15] = Oral bioavailability in Sprague-Dawley rat at 5 mg/kg and measured upto 24 hrs by LC-MS analysis; assay type: ADME, organism-based; conditions: in vivo
in vitro [16] = conditions: rat, liver microsomes; remark: listed apart in the source
[17] = Cmax in Sprague-Dawley rat at 5 mg/kg, po and measured upto 24 hrs by LC-MS analysis; assay type: ADME, organism-based; parameters: time < 24 hrs, dose 5 mg/kg, route po; conditions: in vivo
[18] = AUCt in Sprague-Dawley rat at 1 mg/kg, iv and measured upto 24 hrs by LC-MS analysis; assay type: ADME, organism-based; parameters: dose 1 mg/kg, time < 24 hrs, route iv; conditions: in vivo
[19] = MRT (0 to infinity) in Sprague-Dawley rat at 5 mg/kg, po and measured upto 24 hrs by LC-MS analysis; assay type: ADME, organism-based; conditions: in vivo
in vitro [20] = conditions: human, liver microsomes; remark: listed apart in the source
[21] = MRT(t) in Sprague-Dawley rat at 1 mg/kg, iv and measured upto 24 hrs by LC-MS analysis; assay type: ADME, organism-based; conditions: in vivo
[22] = Half life in Sprague-Dawley rat at 1 mg/kg, iv and measured upto 24 hrs by LC-MS analysis; assay type: ADME, organism-based; conditions: in vivo
in vitro [23] = conditions: human, liver microsomes; remark: listed apart in the source
[24] = Volume of distribution at steady state in Sprague-Dawley rat at 1 mg/kg, iv and measured upto 24 hrs by LC-MS analysis; assay type: ADME, organism-based; conditions: in vivo, read-out: Vdss
HT-29 [25] = test: Antiproliferative activity against ATM-proficient human HT-29 cells assessed as reduction in cell proliferation at 0.5 to 22 uM incubated for 3 days by MTT assay; assay type: functional, cell-based; conditions: dose 0.5-22 µM, time 3.0 day
in vitro [26] = conditions: rat, liver microsomes; remark: listed apart in the source
MCF7 = test: Antiproliferative activity against human MCF7 cells assessed as reduction in cell viability incubated for 3 days by MTT assay; assay type: functional, cell-based; conditions: MCF7, 72 h
MDA-MB-231 = test: Antiproliferative activity against human MDA-MB-231 cells assessed as reduction in cell viability incubated for 3 days by MTT assay; assay type: functional, cell-based; conditions: MDA-MB-231, 72 h
[27] = biological target: Serine/threonine-protein kinase mTOR (Homo sapiens, UniProt P42345); test: Inhibition of mTOR (unknown origin) using peptide as substrate preincubated for 10 mins followed by substrate addition by microplate reader analysis
[28] = biological target: T1, Serine/threonine-protein kinase ATR; test: Inhibition of ATR (unknown origin) using peptide as substrate at 0.1 uM preincubated for 10 mins followed by substrate addition by microplate reader analysis
Target sequence in this assay (Q13535 whole entry, looked up): as the sequence (Q13535 whole entry) above

| SMILES | IC50 (HT-29 [1]) | half-life at 1 h, 1 µM (in vitro [3]) | half-life at 1 h, 1 µM (in vitro [4]) | IC50 [5] | Activity (LoVo [6]) | IC50 (LoVo [14]) | microsomal CLint at 1 h, 1 µM (in vitro [16]) | microsomal CLint at 1 h, 1 µM (in vitro [20]) | CLint scaled at 1 h, 1 µM (in vitro [23]) | Activity (HT-29 [25]) | CLint scaled at 1 h, 1 µM (in vitro [26]) | also measured |
| --- | --- | --- | --- | --- | --- | --- | --- | --- | --- | --- | --- | --- |
| CC(C)n1c(=O)n(C)c2cnc3cc(F)c(-c4ccc(OCCCN5CCCCC5)nc4)cc3c21 [AZD-1390] | > 30000 nM | – | – | – | – | – | – | – | – | – | – | IC50 (A549): 43000 nM; IC50 (HCT-116): 10500 nM |
| C[C@@H]1COCCN1c1nc(-c2cccc3[nH]ccc23)nc2c1CN(C(=O)c1ccc(S(C)(=O)=O)cc1)C2(C)C | 449 nM | 0.428 h | 3.28 h | 4 nM | Dose-Dependent Effect | 92 nM | 7.06 µL/min/mg | 53.9 µL/min/mg | 50.9 mL/min/kg | Dose-Dependent Effect | 12.7 mL/min/kg | half-life [2]: 4.38 h; AUC(0-inf) [7]: 203 ng·h/mL; AUC(0-t) at 24 h [8]: 185 ng·h/mL; clearance [9]: 26 mL/min/kg; AUC(0-inf) [10]: 646 ng·h/mL; MRT last at 24 h [11]: 5.56 h; Tmax [12]: 2 h; MRT inf [13]: 6.99 h; bioavailability [15]: 6.1%; Cmax [17]: 24.1 ng/mL; AUC(0-t) at 24 h [18]: 603 ng·h/mL; MRT inf [19]: 7.1 h; MRT last at 24 h [21]: 5.21 h; half-life [22]: 5.49 h; Vd [24]: 10.8 L/kg |
| CC(=O)c1cccc(C(=O)N2Cc3c(N4CCOC[C@H]4C)nc(-c4cccc5[nH]ccc45)nc3C2(C)C)c1 | 431 nM | 0.0685 h | 0.192 h | 4 nM | Dose-Dependent Effect | 112 nM | 121 µL/min/mg | 339 µL/min/mg | 320 mL/min/kg | Dose-Dependent Effect | 218 mL/min/kg | – |
| O=C(c1cc(Cc2n[nH]c(=O)c3ccccc23)ccc1F)N1CCN(C(=O)C2CC2)CC1 [OLAPARIB] | – | – | – | – | – | – | – | – | – | – | – | IC50 (MCF7): 18600 nM; IC50 (MDA-MB-231): 73300 nM |
| C[C@@H]1COCCN1c1nc(-c2cccc3[nH]ccc23)nc2c1CCN(S(C)(=O)=O)C2(C)C | – | – | – | 18 nM | – | – | – | – | – | – | – | IC50 [27]: 157 nM; inhibition [28]: 88.7% |
